According to patent publication US8003105B2, “Method of treating cancer by co-administration of anticancer agents” (Astellas Pharma Inc., priority 2006, dated 2011):

Tests used:
[1] = test system: human lung carcinoma cell line Calu 6; test: Test Example 1: YM155 concomitant with docetaxel, Calu 6 xenograft in nude mice; format: in vivo; details: for Number of Complete Regressions: animals with CR / animals in group, during the experimental period to day 35; for Tumor Volume day 0: day 0 (first day of administration); for Tumor Volume day 0 / Body Weight day 35 / Tumor Volume day 35: mean ± SEM, n=8
Method: The dose levels are expressed in terms of YM155, the cationic moiety of the drug substance. Docetaxel hydrate (Taxotere® INJECTION) was purchased from Sanofi-Aventis Pharma Ltd. (West Lavel, FRA) and used as docetaxel.
YM155 was dissolved in and diluted with physiological saline in order to prepare dosing solutions (concentrations calculated using the following formulation: dose×mean body weight for each group/daily release volume). These solutions were prepared immediately before the implantation of an osmotic pump (Alzet® model 1007D Micro-Osmotic Pump, DURECT Co., CA, USA) into the test subjects. The solutions were then loaded into the pump. Docetaxel was diluted with physiological saline to prepare 2 mg/mL solutions immediately before administration.
The human lung carcinoma cell line Calu 6 (HTB-56, Lot No. 208280) was obtained from American Type Culture Collection (VA, USA). The cells were cultured at 37° C. in a 5% CO2 atmosphere in RPMI1640 medium supplemented with 10% heat-inactivated fetal bovine serum. The cells were collected with trypsin, suspended in PBS at 6×10^7 cells/mL, and then mixed with an equivalent volume of Matrigel® Basement Membrane Matrix (Becton Dickinson Co., Bedford, Mass., USA).
Five-week-old male nude mice (CAnN.Cg-Foxn1nu/CrlCrlj(nu/nu)) were purchased from Charles River Laboratories Japan, Inc (Kanagawa, Japan). They were maintained on a standard diet and water throughout the experiments under specific pathogen-free conditions. The cells were cultured in vitro and 3×10^6 cells/0.1 mL/mouse were grafted subcutaneously into the flank of 6-week-old nude mice. The mice with tumor volumes (length×width^2×0.5) of 97.3 to 182.7 mm^3 were divided into groups. This was done using SAS software in order to minimize intragroup and intergroup tumor volume variation.
The first day of administration was designated day 0, and observation continued until day 35. Each group (n=8) was treated as follows.
(§1) For 7-day sc continuous infusion, an osmotic pump containing either YM155 or physiological saline, was implanted in the dorsum of each animal while under anesthesia. The vehicle control group received a 7-day sc continuous infusion of physiological saline starting on day 0, and iv bolus injection of physiological saline on days 0, 4 and 8. The YM155 group received a 7-day sc continuous infusion of YM155 at 2 mg/kg/day starting on day 0, and iv bolus injection of physiological saline on days 0, 4 and 8. The docetaxel group received iv bolus injection of docetaxel at 20 mg/10 mL/kg on days 0, 4 and 8, as well as a 7-day sc continuous infusion of physiological saline starting on day 0. The combination group received both compounds instead of the vehicle, similarly to the YM155 and docetaxel groups.
Body weight and tumor diameter were measured every 3-4 days using calipers, and tumor volume was determined by calculating the volume of an ellipsoid using the formula: length×width^2×0.5. Antitumor activities are expressed as percent inhibition of tumor growth (% inh) and percent regression of the tumor (% reg). […] The percent regression of the tumor was calculated for all groups with observed tumor regression, using the following formula: 100×{1−(mean tumor volume of each group on day 35)/(mean tumor volume of each group on day 0)}. The number of Complete Regressions (CRs) in all groups were checked during the experimental period. The CR is defined by instances in which the tumor burden falls bellow the limit of palpation.
Values are expressed as the mean± the standard error of the mean (SEM). Tumor volume and body weight on day 35 were compared between each single compound group and combination group using the Student's t-test. P values of less than 5% are considered significant. SAS software was used for data processing.

[2] = test system: human lung carcinoma cell line Calu 6; test: Test Example 2B: docetaxel followed by YM155 (sequential), Calu 6 xenograft in nude mice; format: in vivo; details: for Number of CRs: animals with complete regression / animals in group; for Tumor Volume day 0 / Body Weight day 35 / Tumor Volume day 35: mean ± SEM, n=8
Method: (§2) The following study was conducted in the same way as Test Example 1 except for the administration timing.
B) The first day of administration was designated day 0, and observation continued until day 35. Each group (n=8) was treated as follows.
as §1, with “day 8,” for “day 0,”, “day 8.” for “day 0.”, “groups. Results” for “groups.”

[3] = test system: human lung carcinoma cell line Calu 6; test: Test Example 2A: YM155 followed by docetaxel (sequential), Calu 6 xenograft in nude mice; format: in vivo; details: for Number of CRs: animals with complete regression / animals in group; for Tumor Volume day 0 / Body Weight day 35 / Tumor Volume day 35: mean ± SEM, n=8
Method: as §2
A) The first day of administration was designated day 0, and observation continued until day 35. Each group (n=8) was treated as follows.
For 7-day sc continuous infusion, an osmotic pump containing either YM155 or physiological saline, was implanted in the dorsum of each animal while under anesthesia. The vehicle control group received a 7-day sc continuous infusion of physiological saline starting on day 0, and iv bolus injection of physiological saline on days 7, 11 and 15. The YM155 group received a 7-day sc continuous infusion of YM155 at 2 mg/kg/day starting on day 0 and iv bolus injection of physiological saline on days 7, 11 and 15. The docetaxel group received iv bolus injection of docetaxel at 20 mg/10 mL/kg on days 7, 11 and 15, as well as a 7-day sc continuous infusion of physiological saline starting on day 0. The combination group received both compounds instead of the vehicle, similarly to the YM155 and docetaxel groups. Results

[4] = test system: lymphoma WSU-DLCL-2 cells; test: Test Example 6: YM155 followed by R-ICE, WSU-DLCL-2 xenograft; format: in vivo, nude mice
Method: The study was conducted in the same way as Test Example 5 according to the following dosage regimen.
YM155 group YM155 2 mg/kg/day (7-day sc continuous infusion)
RICE group RTX 50 mg/kg, i.v. (day 6 and 8)+(IFM 400 mg/kg+CBDCA 30 mg/kg), i.v (day 9)+ETP 10 mg/kg, i.v (day 8, 9 and 10)
YM155→RICE group YM155 2 mg/kg/day (7-day sc continuous infusion)+RTX 50 mg/kg, i.v. (day 6 and 8)+(IFM 400 mg/kg+CBDCA 30 mg/kg), i.v. (day 9)+ETP 10 mg/kg, i.v. (day 8, 9 and 10)
In the table, values are expressed as the mean±SEM (n=8, RICE group: n=6). ¶¶: P<0.01 versus an RICE group, ##: P<0.01 versus YM155 group, N.S.: no significance from RICE group (Student's t-test).

[5] = test system: human NSCLC xenograft models; details: NSCLC xenograft model; Ref. 15; cited from earlier work
[6] = day 35, YM155 2 mg/kg/day 7-day sc infusion from day 0, docetaxel 20 mg/kg/day iv day 0, 4, 8
[7] = day 35, docetaxel 20 mg/kg/day iv day 0, 4, 8, YM155 2 mg/kg/day 7-day sc infusion from day 8
[8] = day 35, YM155 2 mg/kg/day 7-day sc infusion from day 0, docetaxel 20 mg/kg/day iv day 7, 11, 15

| Compound | Number of Complete Regressions [1] | Tumor Volume day 0 [1] [mm^3] | Antitumor Activity, percent inhibition of tumor growth (% inh) [1, 6] [%] | Body Weight day 35 [1, 6] | Tumor Volume day 35 [1, 6] [mm^3] | Number of CRs [2] | Tumor Volume day 0 [2] [mm^3] | Body Weight day 35 [2, 7] | Tumor Volume day 35 [2, 7] [mm^3] | Number of CRs [3] | Tumor Volume day 0 [3] [mm^3] | Body Weight day 35 [3, 8] [g] | Tumor Volume day 35 [3, 8] [mm^3] | further results |
| --- | --- | --- | --- | --- | --- | --- | --- | --- | --- | --- | --- | --- | --- | --- |
| CC(=O)O[C@@]12CO[C@@H]1C[C@H](O)[C@@]1(C)C(=O)[C@H](O)C3=C(C)[C@@H](OC(=O)[C@H](O)[C@@H](NC(=O)OC(C)(C)C)c4ccccc4)C[C@@](O)([C@@H](OC(=O)c4ccccc4)[C@H]21)C3(C)C [Docetaxel, Docetaxel hydrate] | 0/8 | 121.4 ± 7.0 | > 100 | 24.95 ± 0.54 ^ g | 58.0 ± 20.4 | 0/8 | 210.0 ± 22.6 | 23.84 ± 1.01 ^ g | 67.2 ± 15.1 | 0/8 | 209.1 ± 18.3 | 21.03 ± 0.94 | 188.8 ± 29.1 | Antitumor Activity, percent regression of the tumor (% reg) [1, 6]: 52%; Antitumor Activity, percent inhibition of tumor growth (% inh) [2, 7]: > 100%; Antitumor Activity, percent regression of the tumor (% reg) [2, 7]: 68%; Antitumor Activity, percent inhibition of tumor growth (% inh) [3, 8]: > 100%; Antitumor Activity, percent regression of the tumor (% reg) [3, 8]: 10% |
| COCCn1c2c([n+](Cc3cnccn3)c1C)C(=O)c1ccccc1C2=O.[Br-] [YM155, 1-(2-methoxyethyl)-2-methyl-4,9-dioxo-3-(pyrazin-2-ylmethyl)-4,9-dihydro-1H-naphtho[2,3-d]imidazol-3-ium bromide] | 0/8 | 121.4 ± 6.9 | 99 | 26.13 ± 0.56 ^ g | 142.3 ± 16.9 | 0/8 | 206.9 ± 21.8 | 24.80 ± 1.01 ^ g | 1437.5 ± 225.5 | 0/8 | 208.5 ± 18.6 | 26.25 ± 0.25 | 251.8 ± 50.7 | Number of CRs ([4]; animals with complete regression / animals in group): 0/8; Tumor Volume day 0 ([4]; day 0, mean ± SEM, n=8, RICE group n=6): 405.1 ± 13.8 mm^3; Antitumor Activity, percent inhibition of tumor growth (% inh) ([4]; day 28, YM155 2 mg/kg/day 7-day sc infusion, RICE given day 6-10): 45%; Body Weight day 28 ([4]; day 28, YM155 2 mg/kg/day 7-day sc infusion, RICE given day 6-10, mean ± SEM): 28.81 ± 0.23 g; Tumor Volume day 28 ([4]; day 28, YM155 2 mg/kg/day 7-day sc infusion, RICE: RTX 50 mg/kg iv day 6, 8 + IFM 400 mg/kg + CBDCA 30 mg/kg iv day 9 + ETP 10 mg/kg iv day 8-10, mean ± SEM): 1181.3 ± 174.7 mm^3; anti-tumor activity of 7-day continuous infusion [5]: induced tumor regression |
